The record followed here is article PMC10571035 (Science translational medicine, 2020).

The structures appear in SMILES notation.

For the assay, the target named is T1, Heat shock factor 1 (HSF1) (Homo sapiens, UniProt Q00613).
T1 sequence (Q00613 15-120 limits assumed): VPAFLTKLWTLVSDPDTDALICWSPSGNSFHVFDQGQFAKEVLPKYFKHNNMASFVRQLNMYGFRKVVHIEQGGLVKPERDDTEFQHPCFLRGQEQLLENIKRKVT
Kind of assay: SPR Kd. Type of assay: binding.

Usually Kd stands for a measure of binding affinity in units of concentration. A lower Kd goes with a tighter complex.

Regarding `O=C(Nc1ccc(F)cc1)Nc1ccc(Cl)c([N+](=O)[O-])c1` [DTHIB], the affinity, expressed as Kd, was 160 nM. This lies in the sub-micromolar range.
